Measurements taken from the NIST ThermoML archive (doi:10.1016/j.jct.2010.10.016).

How the values were obtained:
[1] = relative permittivity at various frequencies (dimensionless); xn = mol fraction of the nth substance listed; conditions: 101 kPa, Liquid, Frequency=3 MHz, AC method
[2] = xn = mol fraction of the nth substance listed; conditions: 101 kPa, Liquid; for viscosity: Capillary tube (Ostwald / Ubbelohde) method; for mass density: Pycnometric method; for speed of sound: Resonance method

COCCO [2-methoxyethan-1-ol] + C[N+](=O)[O-]
x2 = 0
Conditions	mass density, [2] [kg/m3]	relative permittivity, [1]	speed of sound, [2] [m/s]	viscosity, [2] [mPa·s]
293.15 K	964.88	17.38	1359.3	1.708
298.15 K	960.29	16.96	1342.1	1.544
303.15 K	955.77	16.56	1325.1	1.404
308.15 K	951.19	16.16	1313.5	1.246
313.15 K	946.21	15.77	1296.8	1.098

C[N+](=O)[O-] [nitromethane] + CCCCOCCO
x1 = 1
Conditions	mass density, [2] [kg/m3]	relative permittivity, [1]	speed of sound, [2] [m/s]	viscosity, [2] [mPa·s]
293.15 K	1137.63	37.31	1340.2	0.648
298.15 K	1130.62	36.52	1320.4	–
298.45 K	–	–	–	0.619
303.15 K	1123.6	35.66	1298.1	0.584
308.15 K	1116.86	34.92	1281.2	0.563
313.15 K	1109.87	34.09	1262.8	0.545
